{"source": "patent US20020138856A1", "about": "“Compositions and methods useful for treatment of depressive disorder based on an animal model” (Northwestern University, priority 1998, published 2002)", "key": {"WMI rats": {"tested_on": "WMI rats", "assay": "Forced swim test (FST) immobility before and after drug administration, WMI rats", "assay_type": "in vivo, rat", "conditions": "for effect on alleviating depression (FST immobility): desipramine administered three times within 24 hours", "text": "(§1) FIG. 6 is a graph depicting the immobility in the forced swim test of 14 week-old animals before and after administration of either desipramine, fluoxetine, or water in WMI and WLI animals. Shaded squares and circles indicate immobility after treatment, unshaded squares and circles indicate immobility before treatment, squares indicate WMI animals, and circles indicate WLI animals.\n(§2) The main test of behavior in the rats of the invention is the FST. The general parameters governing this test are as follows, it being understood that variations of the test are permissible within acceptable bounds. The test utilizes a glass water tank 30 cm in diameter and 45 cm tall wherein the water level is 15 cm from the top and the water temperature is 25° C. The procedure for the test is adapted from Porsolt et al. and Detke et al., as described in Detke et al., 1995, Psychopharm. 121:66-72). Rats are individually placed in the water tank for 15 minutes and are then removed from the tank and returned to their cages. […] This 5 minute test session is recorded on videotape. The performance of the rat on the tape is analyzed and subsequently scored using the scoring system developed by Detke et al. (1995, Psychopharm. 121:66-72) by a trained observer, who is unaware as to the various treatment conditions of the rats. […] The following behaviors are recorded: immobility, swimming, and climbing. The rats are scored at 5 second intervals, thus, there are 12 intervals per minute sampled. […] By way of example, if a rat was scored as immobile at 13 of the […], the FST score would be 13. […]\n(§3) The WMI and WLI rats of the invention are useful for screening compounds effective for modulation, preferably, alleviation of depression and other behavioral and depressive disorders. […] WMI and WLI rats are administered a test compound or a placebo at a dosage, a route of administration and for a period of time which is determined by the artisan skilled in such procedures, following standard protocols such as those described, for example, in Remington's Pharmaceutical Sciences, Mack Publishing Co., Easton, Pa., 1985. […]"}, "WLI rats": {"tested_on": "WLI rats", "assay": "Forced swim test (FST) immobility before and after drug administration, WLI rats", "assay_type": "in vivo, rat", "text": "as §1, §2, §3"}, "WKY rats": {"tested_on": "WKY rats", "conditions": "chronic and subacute treatment (three times per day between first and third swim); cited from earlier work"}}, "note": "“Also recorded” adds a separate entry of the source."}
{"smiles": "CNCCCN1c2ccccc2CCc2ccccc21", "note": "[Desipramine, desipramine]", "values": [{"measurement": "immobility time in the forced swim test after administration", "setting": "WMI rats; 14 week-old, before treatment about nineteen 5-second intervals, FIG. 6", "result": "about five"}, {"measurement": "effect on alleviating depression (FST immobility)", "setting": "WMI rats", "result": "responsive; also recorded: effectively alleviated depression"}, {"measurement": "effect on alleviating depression (FST immobility)", "setting": "WLI rats", "result": "do not respond; also recorded: resistant to treatment"}, {"measurement": "immobility time in the forced swim test after administration", "setting": "WLI rats; 14 week-old, before treatment about nine 5-second intervals, change not significant, FIG. 6", "result": "about six"}, {"measurement": "effect on depressive behavior (immobility, struggling in forced swim test)", "setting": "WKY rats", "result": "decreased the depressive behavior"}]}
{"smiles": "CNCCC(Oc1ccc(C(F)(F)F)cc1)c1ccccc1", "note": "(centres unmarked) [Fluoxetine, fluoxetine]", "values": [{"measurement": "effect on alleviating depression (FST immobility)", "setting": "WMI rats", "result": "virtually no effect"}, {"measurement": "effect on alleviating depression (FST immobility)", "setting": "WLI rats", "result": "virtually no effect"}]}
{"smiles": "CN(C)CCCN1c2ccccc2CCc2ccccc21", "note": "[imipramine]", "values": [{"measurement": "effect on depressive behavior (immobility, struggling in forced swim test)", "setting": "WKY rats", "result": "decreased the depressive behavior"}]}
